These results are taken from PubChem BioAssay AID2060499 (Molecular Pharmacology Branch, DTP, NCI, 2025).

For orientation: viability, T/C means the ratio of treated to control. The IC50 is the concentration needed to halve the response being measured.

This assay relates to 777334-354-R2-J4-PDC tumor spheroids with HUVEC/MSC, viability. The assay is described as follows: Anticancer human tumor 777334-354-R2-J4-PDC patient-derived pancreatic adenocarcinoma cell line growth inhibition [GQUAD]. Particulars: for viability, T/C: stronger effect = lower value. An excerpt: DNA G-quadruplex Stabilizer Agents in Combinations in Complex Spheroids
A high-throughput screen of multi-cell type tumor spheroids was designed to identify active combinations of DNA G-quadruplex stabilizer agents and targeted small molecules. Complex spheroids include a stromal component modeled by human endothelial cells (HUVEC) and fibroblasts modeled by human mesenchymal stem cells (MSCs). The concentration ranges selected for each drug and investigational agent were based upon clinically achievable concentrations if the clinical Cmax of the agent was known.
Compounds. The drugs and investigational agents: pidnarulex (CX-5461; NSC782164), APTO-253 (NSC789042), BRACO-19 (NSC847499), peposertib (NSC802822), ceralasertib (NSC780249), elimusertib (NSC800525), camonsertib (NSC841442), AZD-1390 (NSC803789), olaparib (NSC753686), talazoparib (NSC767125), ART-558 (NSC835418), sotorasib (NSC818433), MRTX-1133 (NSC836407), SN-38 (NSC673596), topotecan (NSC609699), etoposide (NSC141540), doxorubicin (NSC123127), gemcitabine (NSC613327), 5-fluorouracil (NSC19893), paclitaxel (NSC125973), vemurafenib (NSC761431), panobinostat (NSC761190), R-306465 (JNJ-16241199; NSC773264), adavosertib (NSC754352), TP-3654 (NSC805149), carboplatin (NSC241240), KSQ-4279 (NSC840948), and staurosporine (NSC755774) were obtained from the National Cancer Institute (NCI) Developmental Therapeutics Program Chemical Repository (34). The FDA-approved anticancer drug set is available from the NCI Developmental Therapeutics Program. […] The stock solutions were prepared in dimethyl sulfoxide (DMSO, Sigma-Aldrich, St. Louis, MO, cat. D2650) at 800-fold the tested concentration and stored at -70 degrees C prior to their use. All drugs and investigational agents were tested over a range starting from a high concentration at or near the clinical Cmax and decreasing in half-log increments. If the clinical Cmax for an agent had not been determined, the highest concentration tested was 10 microM.
2.3 Cell Culture. All cells were maintained in an incubator at 37 degrees C and 5% CO2 with 95% humidity. The PDC lines were cultured according to standard operating procedures established by the NCI PDMR. All PDCs were thawed and cultured in Matrigel-coated flasks prepared with a working solution of 1X Ham's F-12 nutrient mix, without supplementation (Invitrogen, cat. 11765054), 100 U/mL penicillin-streptomycin (Invitrogen, cat. 15140122), and 2.5% Matrigel (Corning Inc., cat. 354248) for the first three passages. The 857933-349-R-J2-PDC line was cultured in 6C/Colon 1B media, which includes advanced DMEM/F-12 (Thermo Fisher Scientific, cat. 12634028), 10 mM HEPES (Thermo Fisher Scientific, cat. 15630080), 1X GlutaMAX supplement (Thermo Fisher Scientific, cat. 35050061), 0.1 mg/mL primocin (InvivoGen, cat. ant-pm-2), 10% defined fetal bovine serum, heat inactivated (HyClone Laboratories Inc., cat. SH30070.03HI), 50% L-WRN conditioned media (ATCC, cat. CRL-3276), 1.25 mM N-Acetyl-L-cysteine (Sigma-Aldrich, cat. A9165), 10 mM nicotinamide (Sigma-Aldrich, cat. N0636), 1X B-27 supplement (Thermo Fisher Scientific, cat. 17504044), 1X N-2 supplement (Thermo Fisher Scientific, cat. 17502048), 10 microM Y-27632 dihydrochloride (Tocris Bioscience, cat. 1254), and 50 ng/mL human EGF recombinant protein (Thermo Fisher Scientific, cat. PHG0311). The 485176-168-R4-J1-PDC line was cultured in Panc media, which includes all 6C/Colon 1B media components plus 100 ng/mL human FGF-10 (Thermo Fisher Scientific, cat. 100-26), 500 nM SB-431542 (Selleckchem, cat. S1067), and gastrin (Tocris, cat. 3006).
[…]

The mark [1] stands for this setting: compound alone, run of 03/18/2024.

“And” between values parts separate entries of the source, which are not always exact repeats. Equal values may be shown once. A value given as a limit tells only on which side of the number the result lay.
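Further: spheroids exposed to compounds for 7 days before readout.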

For `COc1ccc([C@@H](O)c2cc(-c3ncnc4cc(N5CCOCC5)ccc34)c(F)cc2Cl)nn1`, the viability, T/C is, setting by setting: (compound 0.0316 µM) 88.9% and 85.9% and 100%; (compound 0.1 µM) 90.6% and 89.8% and 104%; (compound 0.316 µM) 94.2% and 88.9% and 91.9%; (compound 1 µM) 76.1% and 72.6% and 86.3%; (compound 3.16 µM) 55.1% and 55.7% and 51.5%; (compound 10 µM) 30.2% and 26.8% and 30.7%. For the same compound, the IC50 (curve of compound) is 3860 nM and 3820 nM and 3590 nM.

As for `COc1cccc2c1C(=O)c1c(O)c3c(c(O)c1C2=O)CC(O)(C(=O)CO)CC3OC1CC(N)C(O)C(C)O1` (centres undefined), the viability, T/C by setting is: (compound 0.0316 µM) 95.8% and 98.8% and 102%; (compound 0.1 µM) 86.7% and 89.4% and 89.9%; (compound 0.316 µM) 69% and 68.8% and 73.9%; (compound 1 µM) 42% and 47.4% and 37.8%; (compound 3.16 µM) 22.2% and 23.6% and 27.6%; (compound 10 µM) 12.6% and 13% and 11.9%. Moreover, the IC50 (curve of compound) was 713 nM and 819 nM and 733 nM.

Regarding `Cc1[nH]c2ccc(F)cc2c1-c1nc2c3cccnc3c3ncccc3c2[nH]1`, the viability, T/C is 101% [middle of 12 runs] (compound 0.0316 µM); 98% [middle of 12 runs] (compound 0.1 µM); 97.4% [middle of 11 runs] (compound 0.316 µM); 86.4% [middle of 12 runs] (compound 1 µM); 43.9% [middle of 12 runs] (compound 3.16 µM). Moreover, the IC50 under setting [1] was 2.51 µM [middle of 7 runs].

`Cc1[nH]c2ccccc2c1CCNCc1ccc(/C=C/C(=O)NO)cc1`: the viability, T/C is, setting by setting: (compound 0.000999 µM) 99% and 100% (2×); (compound 0.00316 µM) 91.5% and 99.1% and 97.5%; (compound 0.00999 µM) 106% and 114% and 102%; (compound 0.0316 µM) 93.5% and 98.6% and 91.6%; (compound 0.0999 µM) 72.8% and 72.4% and 75%; (compound 0.316 µM) 32.1% and 29.1% and 35.9%. The IC50 (curve of compound) was 190 nM and 181 nM and 208 nM.

For the compound `Cc1cccc(N(C)C(=O)C2C(O)CCN2c2nc(C)cc(C(F)(F)F)c2C#N)c1` (centres undefined), the viability, T/C is, setting by setting: (compound 0.0316 µM) 102% (2×) and 107%; (compound 0.1 µM) 108% and 104% and 87.8%; (compound 0.316 µM) 99.9% and 101% and 98.9%; (compound 1 µM) 87.3% and 100% and 95%; (compound 3.16 µM) 92.4% and 93.6% and 109%; (compound 10 µM) 96.5% and 85.7% and 94.7%. The 50% inhibitory concentration (IC50) (curve of compound) is > 10000 nM.

Consider `Cc1cnc(CNC(=O)c2c(=O)c3ccc(N4CCCN(C)CC4)nc3n3c2sc2ccccc23)cn1`, for which the viability, T/C was 95.7% [middle of 12 runs] (compound 0.0316 µM); 88.5% [middle of 12 runs] (compound 0.1 µM); 85.2% [middle of 12 runs] (compound 0.316 µM); 76% [middle of 12 runs] (compound 1 µM); 68.6% [middle of 12 runs] (compound 3.16 µM); 54.9% [middle of 12 runs] (compound 10 µM). For the same compound, under setting [1], the IC50 is > 10000 nM and 7430 nM.

In the case of `Cn1ncnc1[C@H]1c2n[nH]c(=O)c3cc(F)cc(c23)N[C@@H]1c1ccc(F)cc1`, the viability, T/C was 95.4% and 87.7% and 92.6% (compound 0.000999 µM); 103% and 99.5% and 94.9% (compound 0.00316 µM); 99% and 100% and 110% (compound 0.00999 µM); 87.2% and 95.5% and 87.8% (compound 0.0316 µM); 87.4% and 104% and 112% (compound 0.0999 µM); 97.3% and 83.1% and 102% (compound 0.316 µM). For the setting “curve of compound”, the half-maximal inhibitory concentration (IC50) is > 316 nM.

Regarding `Nc1ccn(C2OC(CO)C(O)C2(F)F)c(=O)n1` (centres undefined), the viability, T/C (compound 0.0316 µM) is 91.5% and 76.4% and 76.8%; the viability, T/C (compound 0.1 µM) is 73% and 69.4% and 80%; the viability, T/C (compound 0.316 µM) was 64.9% and 57.5% and 76.6%; the viability, T/C (compound 1 µM) was 51.7% and 46.7% and 49.9%; the viability, T/C (compound 3.16 µM) is 41.5% and 36.5% and 39.1%; the viability, T/C (compound 10 µM) is 32.9% and 28.9% and 31.4%. The IC50 (curve of compound) was 1210 nM and 707 nM and 1050 nM.

Take `O=C(c1cc(Cc2n[nH]c(=O)c3ccccc23)ccc1F)N1CCN(C(=O)C2CC2)CC1`: the viability, T/C runs as follows: (compound 0.0316 µM) 92.5% and 109% and 99%; (compound 0.1 µM) 111% and 84% and 105%; (compound 0.316 µM) 96.9% and 103% and 102%; (compound 1 µM) 84.4% and 89.3% and 94.1%; (compound 3.16 µM) 88.8% and 76.5% and 101%; (compound 10 µM) 77.2% and 75.9% and 79.5%. Further, the IC50 (curve of compound) is > 10000 nM.

For `O=c1[nH]cc(F)c(=O)[nH]1`, the viability, T/C (compound 0.0316 µM) was 103% (2×) and 96.5%; the viability, T/C (compound 0.1 µM) is 103% and 97.9% and 98.6%; the viability, T/C (compound 0.316 µM) was 104% and 107% and 115%; the viability, T/C (compound 1 µM) was 75.3% and 73.9% and 78%; the viability, T/C (compound 3.16 µM) was 69.9% and 72.7% and 71.7%; the viability, T/C (compound 10 µM) is 63.2% and 65.2% and 59.8%. The IC50 (curve of compound) is > 10000 nM.
